US10221163B2 (priority 2015, dated 2019)
pIC50: −log10 of the molar value. Like-named read-outs stand apart in the source and are kept apart here.

Legend:
[1] = tested on: Pseudomonas aeruginosa efflux− (MB9799), IMP-1; format: cell-based; details: concentration restoring susceptibility to imipenem at 2 μg/mL in the presence of a class A, C, D serine β-lactamase inhibitor closely related to relebactam
Summary of the method: (§1)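 Steps: add fixed imipenem and/or ceftazidime (usually CLSI breakpoint) and fixed AmpC-directed class A/C inhibitor to microbroth MIC wells; titrate MBL inhibitor; record concentration regaining susceptibility for each PAO1-derived strain; divide efflux+ by efflux− value.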

[2] = tested on: Pseudomonas aeruginosa MB9798 vs MB9799; details: ratio MITC95 PA_9798/MITC95 PA_9799
Summary of the method: as §1

[3] = tested on: Pseudomonas aeruginosa efflux+ (MB9798), IMP-1; format: cell-based; details: concentration restoring susceptibility to imipenem at 2 μg/mL in the presence of a class A, C, D serine β-lactamase inhibitor closely related to relebactam
Summary of the method: as §1

[4] = tested on: Klebsiella pneumoniae expressing VIM-1 (IHMA599644); format: cell-based; details: with imipenem 1 μg/ml; 95% inhibition of bacterial growth
Summary of the method: (§2)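 Imipenem 1 μg/ml + inhibitor; MBL-expressing clinical strains in 1.1×CAMHB, inoculum from saline suspension diluted 1:100; 35° C, 22–24 h; absorbance read-out.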

[5] = tested on: Escherichia coli expressing NDM-1 (CLB30005, CLB30016); format: cell-based; details: with imipenem 1 μg/ml; 95% inhibition of bacterial growth
Summary of the method: as §2

[6] = tested on: Serratia marcescens expressing IMP-1 (CL5741); format: cell-based; details: with imipenem 1 μg/ml; 95% inhibition of bacterial growth
Summary of the method: as §2

NDM-1 = NDM-1 (Klebsiella pneumoniae, UniProt C7C422); assay: biochemical; format: biochemical; details: fluorescence assay, CCF2-FA substrate, 1 pM enzyme, 2 hours at 25° C., read-out: NDM-1 IC50
Chain of NDM-1 (C7C422 whole entry, looked up, species assumed): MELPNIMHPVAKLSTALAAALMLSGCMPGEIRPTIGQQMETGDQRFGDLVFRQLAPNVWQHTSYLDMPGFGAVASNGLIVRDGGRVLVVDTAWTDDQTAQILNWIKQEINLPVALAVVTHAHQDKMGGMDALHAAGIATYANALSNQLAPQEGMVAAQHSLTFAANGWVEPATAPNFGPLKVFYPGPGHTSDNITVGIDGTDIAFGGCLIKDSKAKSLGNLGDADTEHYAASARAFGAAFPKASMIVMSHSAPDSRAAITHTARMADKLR
Summary of the method: (§3)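 Enzyme activity was measured by fluorescence using CCF2-FA, a cephalosporin-linked 7-hydroxycoumarin/fluorescein substrate, with inhibitor, metallo-β-lactamase and substrate incubated together for 2 hours at 25° C. IC50 came from a 4-parameter fit of inhibition versus log inhibitor concentration.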

IMP-1 = IMP-1 (Serratia marcescens, UniProt P52699); assay: biochemical; format: biochemical; details: fluorescence assay, CCF2-FA substrate, 2 pM enzyme, 2 hours at 25° C., read-out: IMP-1 IC50
Chain of IMP-1 (P52699 whole entry, looked up, species assumed): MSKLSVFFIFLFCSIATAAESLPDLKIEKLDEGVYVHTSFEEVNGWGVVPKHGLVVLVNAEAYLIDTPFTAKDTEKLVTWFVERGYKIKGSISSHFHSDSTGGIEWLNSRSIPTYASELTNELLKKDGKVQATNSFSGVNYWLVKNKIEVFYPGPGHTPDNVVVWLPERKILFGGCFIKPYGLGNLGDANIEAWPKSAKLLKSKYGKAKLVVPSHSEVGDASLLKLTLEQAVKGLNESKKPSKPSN
Summary of the method: as §3

VIM-1 = VIM-1 (Pseudomonas aeruginosa (strain ATCC 15692 / DSM 22644 / CIP 104116 / JCM 14847 / LMG 12228 / 1C / PRS 101 / PAO1), UniProt A0A0F7KYQ8); assay: biochemical; details: CCF2-FA substrate, 30 pM enzyme, 2 hours at 25° C.
Summary of the method: as §3

[7] = fluorescence assay, read-out: VIM-1 IC50

Compound	P. aeruginosa expressing IMP-1, efflux − (MB9799) MITC95 [1] [µM]	Efflux ratio [2]	P. aeruginosa expressing IMP-1, efflux + (MB9798) MITC95 [3] [µM]	Klebsiella pneumoniae expressing VIM-1 (IHMA599644) MITC95 [4] [µM]	Escherichia coli expressing NDM-1 (CLB30016) MITC95 [5] [µM]	Serratia marcescens expressing IMP-1 (CL5741) MITC95 [6] [µM]	pIC50 (NDM-1)	pIC50 (IMP-1)	pIC50 (VIM-1; [7])	pIC50 (VIM-1; VIM-1 IC50, fluorescence assay)	pIC50 (NDM-1; 2,2,2-trifluoroacetate)	pIC50 (IMP-1; 2,2,2-trifluoroacetate)
Nc1nc2c(-c3ccc(S(=O)(=O)NC4CC5CNC4C5)c(S(N)(=O)=O)c3-c3nnn[nH]3)cccc2s1 (stereo not drawn) [Example 88, 4-(2-aminobenzo[d]thiazol-4-yl)-N^1-(2-azabicyclo[2.2.1]heptan-6-yl)-3-(1H-tetrazol-5-yl)benzene-1,2-disulfonamide]	3.125	0.50	1.563	6.25	3.125	3.125	10.69	9.76	9.78	–	–	–
Nc1nc2c(-c3ccc(S(=O)(=O)NC4CC5CNC4C5)c(S(N)(=O)=O)c3-c3nnn[nH]3)cccc2s1 (stereo not drawn) [Example 89, 4-(2-aminobenzo[d]thiazol-4-yl)-N^1-(2-azabicyclo[2.2.1]heptan-6-yl)-3-(1H-tetrazol-5-yl)benzene-1,2-disulfonamide]	1.563	1.00	1.563	6.25	6.25	3.125	10.24	9.25	9.64	–	–	–
NCCCNS(=O)(=O)c1ccc(-c2cccc3sc(N)nc23)c(-c2nnn[nH]2)c1S(N)(=O)=O.O=C(O)C(F)(F)F [Example 90, 3-(4-(2-aminobenzo[d]thiazol-4-yl)-2-sulfamoyl-3-(1H-tetrazol-5-yl)phenylsulfonamido)propan-1-aminium 2,2,2-trifluoroacetate]	1.563	0.50	0.7813	3.125	3.125	1.563	10.10	9.39	9.57	–	–	–
Nc1nc2c(-c3ccc(S(=O)(=O)NCC4(F)CNC4)c(S(N)(=O)=O)c3-c3nnn[nH]3)cccc2s1.O=CO [Example 91, 3-(((4-(2-aminobenzo[d]thiazol-4-yl)-2-sulfamoyl-3-(1H-tetrazol-5-yl)phenyl)sulfonamido)methyl)-3-fluoroazetidin-1-ium formate]	1.563	1.00	1.563	3.125	1.563	1.563	10.11	9.49	–	9.49	–	–
CNCCCN(C)S(=O)(=O)c1ccc(-c2cccc3sc(N)nc23)c(-c2nnn[nH]2)c1S(N)(=O)=O.O=C(O)C(F)(F)F [Example 93, 3-(4-(2-aminobenzo[d]thiazol-4-yl)-N-methyl-2-sulfamoyl-3-(1H-tetrazol-5-yl)phenylsulfonamido)-N-methylpropan-1-aminium 2,2,2-trifluoroacetate]	3.125	1.00	3.125	12.5	6.25	3.125	8.20	8.28	7.91	–	–	–
NC[C@@H]1CCN(S(=O)(=O)c2ccc(-c3cccc4sc(N)nc34)c(-c3nnn[nH]3)c2S(N)(=O)=O)C1.O=C(O)C(F)(F)F [Example 94, (S)-(1-((4-(2-aminobenzo[d]thiazol-4-yl)-2-sulfamoyl-3-(1H-tetrazol-5-yl)phenyl)sulfonyl)pyrrolidin-3-yl)methanaminium 2,2,2-trifluoroacetate]	1.563	1.00	1.563	3.125	3.646	2.083	–	–	–	9.01	9.24	9.14
Nc1nc2c(-c3ccc(S(=O)(=O)NC4CCC5OC4CC5N)c(S(N)(=O)=O)c3-c3nnn[nH]3)cccc2s1.O=C(O)C(F)(F)F (stereo not drawn) [Example 95, 2-(4-(2-aminobenzo[d]thiazol-4-yl)-2-sulfamoyl-3-(1H-tetrazol-5-yl)phenylsulfonamido)-8-oxabicyclo[3.2.1]octan-6-aminium 2,2,2-trifluoroacetate]	1.563	1.00	1.563	3.125	1.563	3.125	10.57	9.72	9.76	–	–	–
Nc1nc2c(-c3ccc(S(=O)(=O)NCC4COCCN4)c(S(N)(=O)=O)c3-c3nnn[nH]3)cccc2s1.O=C(O)C(F)(F)F (stereo not drawn) [Example 96, 3-((4-(2-aminobenzo[d]thiazol-4-yl)-2-sulfamoyl-3-(1H-tetrazol-5-yl)phenylsulfonamido)methyl)morpholin-4-ium 2,2,2-trifluoroacetate]	3.125	1.00	3.125	6.25	6.25	3.125	10.12	9.40	–	9.52	–	–
Nc1nc2c(-c3ccc(S(=O)(=O)NC4CN5CCC4CC5)c(S(N)(=O)=O)c3-c3nnn[nH]3)cccc2s1.O=C(O)C(F)(F)F (stereo not drawn) [Example 97, 3-(4-(2-aminobenzo[d]thiazol-4-yl)-2-sulfamoyl-3-(1H-tetrazol-5-yl)phenylsulfonamido)quinuclidin-1-ium 2,2,2-trifluoroacetate]	1.563	1.00	1.563	3.125	3.125	3.125	10.67	9.42	–	9.65	–	–
CN(CCc1ccncc1)S(=O)(=O)c1ccc(-c2cccc3sc(N)nc23)c(-c2nnn[nH]2)c1S(N)(=O)=O.O=C(O)C(F)(F)F [Example 100, 4-(2-(4-(2-aminobenzo[d]thiazol-4-yl)-N-methyl-2-sulfamoyl-3-(1H-tetrazol-5-yl)phenylsulfonamido)ethyl)pyridin-1-ium 2,2,2-trifluoroacetate]	6.25	32.00	200	200	50	25	8.41	8.49	–	7.90	–	–
CC1(CN)CN(S(=O)(=O)c2ccc(-c3cccc4sc(N)nc34)c(-c3nnn[nH]3)c2S(N)(=O)=O)C1.O=C(O)C(F)(F)F [Example 101, (1-((4-(2-aminobenzo[d]thiazol-4-yl)-2-sulfamoyl-3-(1H-tetrazol-5-yl)phenyl)sulfonyl)-3-methylazetidin-3-yl)methanaminium 2,2,2-trifluoroacetate]	3.125	1.00	3.125	6.25	3.125	3.125	9.54	8.90	–	9.13	–	–
